According to US20160008382A1, “METHODS OF TREATMENT OF CANCER” (Millennium Pharmaceuticals, Inc., priority 2012, published 2016):

How the values were obtained:
[1] = tested on: relapsed or refractory mantle cell lymphoma; conditions: patients with relapsed or refractory mantle cell lymphoma, Phase II; cited from earlier work
[2] = on exposure to aqueous solution or plasma; cited from earlier work
[3] = tested on: hematological and solid tumor xenograft models; conditions: range of hematological and solid tumor xenograft models; cited from earlier work
nasopharyngeal cancer = experiment: Treatment of nasopharyngeal cancer patients with the compound of formula (III-A), IV twice-weekly; clinical response; type: in vivo, human
Procedure: (1) Tissue Microarray (obtained from US Biomax, Inc.) of primary nasopharyngeal cancer (n=35) (2) Tissue Microarray of metastatic nasopharyngeal cancer (obtained from US Biomax, Inc.) (n=15) (3) Tissue Microarray of other histologies of head and neck cancers (obtained from US Biomax, Inc.) (n=68) (4) Archival primary tumor biopsy samples of patients with head and neck squamous cell cancers (n=14). All samples were obtained under the appropriate informed consent. The patients were administered the compound of formula (III-A) on a twice-weekly schedule (days 1, 4, 8 and 11 of a 21-day cycle) as an IV injection. Of the primary tumor samples in (4), there were three patients with nasopharyngeal cancer.

SMILES: CC(C)C[C@H](NC(=O)[C@H](Cc1ccccc1)NC(=O)c1cnccn1)B(O)O [bortezomib, N-2-pyrazinecarbonyl-L-phenylalanine-L-leucineboronic acid]
- activity in patients [1]: activity

SMILES: CC(C)C[C@H](NC(=O)CNC(=O)c1cc(Cl)ccc1Cl)B1OC(=O)C(CC(=O)O)(CC(=O)O)O1 [compound of formula (III-A), 2,2′-{2-[(1R)-1-({[(2,5-dichlorobenzoyl)amino]acetyl}amino)-3-methylbutyl]-5-oxo-1,3,2-dioxaborolane-4,4-diyl}diacetic acid]
- hydrolysis to the active form MLN2238 [2]: rapidly hydrolyzes
- anti-tumor activity in xenograft models [3]: anti-tumor activity
- clinical response, Patient 1 (nasopharyngeal cancer; Patient 1, metastatic nasopharyngeal cancer of a squamous cell type, IV injection days 1, 4, 8 and 11 of a 21-day cycle, NFκB p65 H-score 300): durable partial response
- Responder/Non-responder, Patient 1 (nasopharyngeal cancer; Patient 1, nasopharyngeal cancer, NFκB p65 IHC assay H-score 300): Responder
- disease progression, Patient 2 (time to progression) (nasopharyngeal cancer; Patient 2, nasopharyngeal cancer, IV injection days 1, 4, 8 and 11 of a 21-day cycle, NFκB p65 H-score 200): ≤ 4 cycles
- Responder/Non-responder, Patient 2 (nasopharyngeal cancer; Patient 2, nasopharyngeal cancer, NFκB p65 IHC assay H-score 200): Non-responder
- clinical response, Patient 3 (nasopharyngeal cancer; Patient 3, nasopharyngeal cancer, IV injection days 1, 4, 8 and 11 of a 21-day cycle, NFκB p65 H-score 160): progressive disease
- Responder/Non-responder, Patient 3 (nasopharyngeal cancer; Patient 3, nasopharyngeal cancer, NFκB p65 IHC assay H-score 160): Non-responder
